Assay results reported in US10143746B2, “Immunomodulators” (BRISTOL-MYERS SQUIBB COMPANY, priority 2016, dated 2018).
Where a SMILES comes first, the peptide text is derived from it. Bridges are numbered along the chain shown (N, C = ends). [ ]: non-standard residue; d: D form. Hyp = O=C(O)[C@@H]1C[C@@H](O)CN1; NMeNle = CCCC[C@H](NC)C(=O)O; NMeA = CN[C@@H](C)C(=O)O; Orn = NCCC[C@H](N)C(=O)O; Dab = NCC[C@H](N)C(=O)O; Sar = CNCC(=O)O

target: PD-1-Ig binding to PD-L1-TVMV-His (PD-L1-His) (Homo sapiens (Human), UniProt Q9NZQ7); assay: PD-1/PD-L1 Homogenous Time-Resolved Fluorescence (HTRF) binding assay (PD-1-Ig/PD-L1-His); settings: PD-1-Ig (20 nM)/PD-L1-His (10 nM); numeric values
Sequence (Q9NZQ7 other isoform, or with tags, fused parts or gaps): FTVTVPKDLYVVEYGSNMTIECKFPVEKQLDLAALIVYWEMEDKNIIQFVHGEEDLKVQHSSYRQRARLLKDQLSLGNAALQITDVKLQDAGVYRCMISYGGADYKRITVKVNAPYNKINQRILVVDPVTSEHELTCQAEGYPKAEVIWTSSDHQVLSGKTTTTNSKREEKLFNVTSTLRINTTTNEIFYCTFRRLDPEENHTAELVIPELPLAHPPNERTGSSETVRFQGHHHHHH
From the text: Methods for Testing the Ability of Macrocyclic Compounds to Compete for the Binding of PD-1 to PD-L1 Using Homogenous Time-Resolved Fluorescence (HTRF) Binding Assays
The ability of the macrocyclic compounds of the present disclosure to bind to PD-L1 was investigated using a PD-1/PD-L1 Homogenous Time-Resolved Fluorescence (HTRF) binding assay.
Homogenous Time-Resolved Fluorescence (HTRF) Assays of Binding of Soluble PD-1 to Soluble PD-L1. Soluble PD-1 and soluble PD-L1 refers to proteins with carboxyl-end truncations that remove the transmembrane-spanning regions and are fused to heterologous sequences, specifically the Fc portion of the human immunoglobulin G sequence (Ig) or the hexahistidine epitope tag (His). All binding studies were performed in an HTRF assay buffer consisting of dPBS supplemented with 0.1% (w/v) bovine serum albumin and 0.05% (v/v) Tween-20. For the PD-1-Ig/PD-L1-His binding assay, inhibitors were pre-incubated with PD-L1-His (10 nM final) for 15 m in 4 μl of assay buffer, followed by addition of PD-1-Ig (20 nM final) in 1 μl of assay buffer and further incubation for 15 m. PD-L1 fusion proteins from either human, cynomologous macaques, mouse, or other species were used. HTRF detection was achieved using europium crypate-labeled anti-Ig monoclonal antibody (1 nM final) and allophycocyanin (APC) labeled anti-His monoclonal antibody (20 nM final). Antibodies were diluted in HTRF detection buffer and 5 μl was dispensed on top of binding reaction. […] Additional binding assays were established between PD-1-Ig/PD-L2-His (20 and 5 nM, respectively), CD80-His/PD-L1-Ig (100 and 10 nM, respectively) and CD80-His/CTLA4-Ig (10 and 5 nM, respectively).
Recombinant Proteins. […] Human PD-L2-His (Sino Biologicals), CD80-His (Sino Biologicals), CTLA4-Ig (RnD Systems) were all obtained through commercial sources.

Row | Compound | IC50 [nM]
1 | CCCC[C@H]1C(=O)N(C)[C@@H](CCCC)C(=O)N[C@@H](C)C(=O)N[C@H](C(=O)NCC(N)=O)CSCC(=O)N[C@@H](Cc2ccc(O)cc2)C(=O)N(C)[C@@H](C)C(=O)N[C@H]2CCCNC(=O)CC[C@@H](NC(=O)[C@H](Cc3cn(C(=O)C(F)(F)F)cn3)NC(=O)[C@@H]3CCCC3C2=O)C(=O)N2C[C@H](O)C[C@H]2C(=O)N[C@@H](Cc2c[nH]c3ccccc23)C(=O)N[C@@H](CO)C(=O)N[C@@H](Cc2c[nH]c3ccccc23)C(=O)N1C (stereo partly drawn) [Example 1403] | 7

same assay, conditions: PD-1-Ig (20 nM)/PD-L1-His (10 nM); range classes

Row | Compound | IC50 [nM]
2 | CCCC[C@H]1C(=O)N(C)[C@@H](CCCC)C(=O)N[C@@H](C)C(=O)N[C@H](C(=O)NCC(N)=O)CSCC(=O)N[C@@H](Cc2ccc(O)cc2)C(=O)N(C)[C@@H](C)C(=O)N[C@H]2CCC(=O)NCCC[C@H](NC(=O)[C@H](Cc3cnc[nH]3)NC(=O)[C@@H]3CCCN3C2=O)C(=O)N2C[C@H](O)C[C@H]2C(=O)N[C@@H](Cc2c[nH]c3ccccc23)C(=O)N[C@@H](CO)C(=O)N[C@@H](Cc2c[nH]c3ccccc23)C(=O)N1C [Example 1505] ({CH2CO}-Y[NMeA]EPH[Orn][Hyp]WSW[NMeNle][NMeNle]ACG-NH2; lactam 3-6; thioether N-14) | 10 to 99
3 | CCCC[C@H]1C(=O)N(C)[C@@H](CCCC)C(=O)N[C@@H](C)C(=O)N[C@H](C(=O)NCC(N)=O)CSCC(=O)N[C@@H](Cc2ccc(O)cc2)C(=O)N(C)[C@@H](C)C(=O)N[C@H]2CCCNC(=O)CC[C@H](NC(=O)[C@H](Cc3cnc[nH]3)NC(=O)[C@@H]3CCCN3C2=O)C(=O)N2C[C@H](O)C[C@H]2C(=O)N[C@@H](Cc2c[nH]c3ccccc23)C(=O)N[C@@H](CO)C(=O)N[C@@H](Cc2c[nH]c3ccccc23)C(=O)N1C [Example 1506] ({CH2CO}-Y[NMeA][Orn]PHE[Hyp]WSW[NMeNle][NMeNle]ACG-NH2; lactam 3-6; thioether N-14) | 10 to 99
4 | CCCC[C@H]1C(=O)N(C)[C@@H](CCCC)C(=O)N[C@@H](C)C(=O)N[C@H](C(=O)NCC(N)=O)CSCC(=O)N[C@@H](Cc2ccc(O)cc2)C(=O)N(C)[C@@H](C)C(=O)N[C@H]2CC(=O)NCCCC[C@H](NC(=O)[C@H](Cc3cnc[nH]3)NC(=O)[C@@H]3CCCN3C2=O)C(=O)N2C[C@H](O)C[C@H]2C(=O)N[C@@H](Cc2c[nH]c3ccccc23)C(=O)N[C@@H](CO)C(=O)N[C@@H](Cc2c[nH]c3ccccc23)C(=O)N1C [Example 1507] ({CH2CO}-Y[NMeA]DPHK[Hyp]WSW[NMeNle][NMeNle]ACG-NH2; lactam 3-6; thioether N-14) | 10 to 99
5 | CCCC[C@H]1C(=O)N(C)[C@@H](CCCC)C(=O)N[C@@H](C)C(=O)N[C@H](C(=O)NCC(N)=O)CSCC(=O)N[C@@H](Cc2ccc(O)cc2)C(=O)N(C)[C@@H](C)C(=O)N[C@H]2CC(=O)NCCC[C@H](NC(=O)[C@H](Cc3cnc[nH]3)NC(=O)[C@@H]3CCCN3C2=O)C(=O)N2C[C@H](O)C[C@H]2C(=O)N[C@@H](Cc2c[nH]c3ccccc23)C(=O)N[C@@H](CO)C(=O)N[C@@H](Cc2c[nH]c3ccccc23)C(=O)N1C [Example 1508] ({CH2CO}-Y[NMeA]DPH[Orn][Hyp]WSW[NMeNle][NMeNle]ACG-NH2; lactam 3-6; thioether N-14) | 10 to 99

Results, then the compound that gave them:

Row | IC50 [nM] | Compound
6 | 10 to 99 | CCCC[C@H]1C(=O)N(C)[C@@H](CCCC)C(=O)N[C@@H](CCCNC(=N)N)C(=O)N[C@H](C(=O)NCC(N)=O)CSCC(=O)N[C@@H](Cc2ccc(O)cc2)C(=O)N(C)[C@@H](C)C(=O)N[C@H]2CCNC(=O)CC[C@H](NC(=O)[C@H](C)NC(=O)[C@@H]3CCCN3C2=O)C(=O)N2C[C@H](O)C[C@H]2C(=O)N[C@@H](Cc2c[nH]c3ccccc23)C(=O)N[C@@H](CO)C(=O)N[C@@H](Cc2c[nH]c3ccccc23)C(=O)N1C [Example 1400] ({CH2CO}-Y[NMeA][Dab]PAE[Hyp]WSW[NMeNle][NMeNle]RCG-NH2; lactam 3-6; thioether N-14)
7 | 10 to 99 | CCCC[C@H]1C(=O)N(C)[C@@H](CCCC)C(=O)N[C@@H](C)C(=O)N[C@H]2CSCC(=O)N[C@@H](Cc3ccc(O)cc3)C(=O)N(C)[C@@H](C)C(=O)N[C@@H](CC(N)=O)C(=O)N3CCC[C@H]3C(=O)N[C@@H](Cc3cn(C(=O)C(F)(F)F)cn3)C(=O)N[C@@H](CC(C)C)C(=O)N[C@@H](CCCNC(=O)CNC2=O)C(=O)N[C@@H](Cc2c[nH]c3ccccc23)C(=O)N[C@@H](CO)C(=O)N[C@@H](Cc2c[nH]c3ccccc23)C(=O)N1C [Example 1401]
8 | 10 to 99 | CCCC[C@H]1C(=O)N(C)[C@@H](CCCC)C(=O)N[C@@H](CCCNC(=N)N)C(=O)N[C@H](C(=O)NCC(N)=O)CSCC(=O)N[C@@H](Cc2ccc(O)cc2)C(=O)N(C)[C@@H](C)C(=O)N[C@H]2CCCNC(=O)CC[C@H](NC(=O)[C@H](C)NC(=O)[C@@H]3CCCN3C2=O)C(=O)N2C[C@H](O)C[C@H]2C(=O)N[C@@H](Cc2c[nH]c3ccccc23)C(=O)N[C@@H](CO)C(=O)N[C@@H](Cc2c[nH]c3ccccc23)C(=O)N1C [Example 1402] ({CH2CO}-Y[NMeA][Orn]PAE[Hyp]WSW[NMeNle][NMeNle]RCG-NH2; lactam 3-6; thioether N-14)
9 | 10 to 99 | CCCC[C@H]1C(=O)N(C)[C@@H](CCCC)C(=O)N[C@@H](C)C(=O)N[C@H](C(=O)NCC(N)=O)CSCC(=O)N[C@@H](Cc2ccc(O)cc2)C(=O)N(C)[C@@H](C)C(=O)N[C@H]2CC(=O)NCC[C@H](NC(=O)[C@H](Cc3cnc[nH]3)NC(=O)[C@@H]3CCCN3C2=O)C(=O)N2C[C@H](O)C[C@H]2C(=O)N[C@@H](Cc2c[nH]c3ccccc23)C(=O)N[C@@H](CO)C(=O)N[C@@H](Cc2c[nH]c3ccccc23)C(=O)N1C [Example 1500] ({CH2CO}-Y[NMeA]DPH[Dab][Hyp]WSW[NMeNle][NMeNle]ACG-NH2; lactam 3-6; thioether N-14)
10 | 10 to 99 | CCCC[C@H]1C(=O)N(C)[C@@H](CCCC)C(=O)N[C@@H](C)C(=O)N[C@H](C(=O)NCC(N)=O)CSCC(=O)N[C@@H](Cc2ccc(O)cc2)C(=O)N(C)[C@@H](C)C(=O)N[C@H]2CCC(=O)NCC[C@H](NC(=O)[C@H](Cc3cnc[nH]3)NC(=O)[C@@H]3CCCN3C2=O)C(=O)N2C[C@H](O)C[C@H]2C(=O)N[C@@H](Cc2c[nH]c3ccccc23)C(=O)N[C@@H](CO)C(=O)N[C@@H](Cc2c[nH]c3ccccc23)C(=O)N1C [Example 1501] ({CH2CO}-Y[NMeA]EPH[Dab][Hyp]WSW[NMeNle][NMeNle]ACG-NH2; lactam 3-6; thioether N-14)
11 | 10 to 99 | CCCC[C@H]1C(=O)N(C)[C@@H](CCCC)C(=O)N[C@@H](C)C(=O)N[C@H](C(=O)NCC(N)=O)CSCC(=O)N[C@@H](Cc2ccc(O)cc2)C(=O)N(C)[C@@H](C)C(=O)N[C@H]2CCNC(=O)CC[C@H](NC(=O)[C@H](Cc3cnc[nH]3)NC(=O)[C@@H]3CCCN3C2=O)C(=O)N2C[C@H](O)C[C@H]2C(=O)N[C@@H](Cc2c[nH]c3ccccc23)C(=O)N[C@@H](CO)C(=O)N[C@@H](Cc2c[nH]c3ccccc23)C(=O)N1C [Example 1504] ({CH2CO}-Y[NMeA][Dab]PHE[Hyp]WSW[NMeNle][NMeNle]ACG-NH2; lactam 3-6; thioether N-14)
12 | 3 to 9.9 | CCCC[C@H]1C(=O)N(C)[C@@H](CCCC)C(=O)N[C@H]2CCC(=O)NCCCC[C@H](NC(=O)[C@H](Cc3c[nH]c4ccccc34)NC(=O)CN(C)C(=O)[C@H](CC(C)C)NC(=O)[C@H](Cc3c[nH]cn3)NC(=O)[C@@H]3CCCN3C(=O)[C@H](CC(N)=O)NC(=O)[C@H](C)N(C)C(=O)[C@H](Cc3ccccc3)NC(=O)CSC[C@@H](C(=O)NCC(N)=O)NC2=O)C(=O)N[C@@H](Cc2c[nH]c3ccccc23)C(=O)N1C [Example 5001] ({CH2CO}-F[NMeA]NPHL[Sar]WKW[NMeNle][NMeNle]ECG-NH2; lactam 9-13; thioether N-14)
